A word on the inhibition: it is the percentage by which the read-out fell short of the control. Read a high inhibition as strong suppression. A word on the IC50: it is the concentration needed to halve the response being measured.

This note sets out measurements from patent publication US20230212120A1, “SMALL MOLECULE INHIBITORS OF GRK5 AND GRK5 SUBFAMILY MEMBERS AND USES THEREOF” (The Regents of the University of Michigan, priority 2020, published 2023).

Experiment [1] concerns FGFR1/2. Put plainly: Kinome panel, FGFR1/2. Format: biochemical. The following applies: tested at 1 μM.
Experiment [2] addresses GRK6 (Homo sapiens, UniProt P43250). Put plainly: Kinome panel, GRK6. Format: biochemical. The following applies: tested at 1 μM.
The target in experiment [3] is T1, bovine GRK2 (Bos taurus, UniProt P21146).
T1 sequence (P21146 1-689): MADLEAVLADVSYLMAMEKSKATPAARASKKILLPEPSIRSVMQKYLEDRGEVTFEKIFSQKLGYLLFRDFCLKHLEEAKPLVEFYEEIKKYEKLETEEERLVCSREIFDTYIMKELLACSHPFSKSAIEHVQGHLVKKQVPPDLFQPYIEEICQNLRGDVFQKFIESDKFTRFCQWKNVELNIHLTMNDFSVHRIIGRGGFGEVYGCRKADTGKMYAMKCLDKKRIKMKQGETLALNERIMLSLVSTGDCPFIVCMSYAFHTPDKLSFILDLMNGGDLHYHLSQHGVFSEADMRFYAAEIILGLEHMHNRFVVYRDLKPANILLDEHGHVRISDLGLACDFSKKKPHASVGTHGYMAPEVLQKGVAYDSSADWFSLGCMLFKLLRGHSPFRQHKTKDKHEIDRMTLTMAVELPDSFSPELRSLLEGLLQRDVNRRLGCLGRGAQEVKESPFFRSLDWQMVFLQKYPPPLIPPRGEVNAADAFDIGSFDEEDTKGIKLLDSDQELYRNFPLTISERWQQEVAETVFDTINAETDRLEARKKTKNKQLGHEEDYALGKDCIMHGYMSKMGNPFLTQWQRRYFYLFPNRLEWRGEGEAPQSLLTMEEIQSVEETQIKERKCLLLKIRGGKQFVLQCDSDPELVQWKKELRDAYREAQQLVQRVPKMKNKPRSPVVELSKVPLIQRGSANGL
Put plainly: radiometric GRK2 inhibition assay (tubulin phosphorylation).

Experiment [4] deals with EGFR (Homo sapiens, UniProt P00533). Put plainly: Kinome panel, EGFR. Format: biochemical. The following applies: tested at 1 μM.
Experiment [5] has as its system PDGFR. Description: Kinome panel, PDGFR. Format: biochemical. The following applies: tested at 1 μM.
Experiment [6] addresses GRK5 (Homo sapiens, UniProt P34947). Description: radiometric GRK5 inhibition assay (tubulin phosphorylation).
The target in experiment [7] is PKA (Homo sapiens, UniProt P17612). Put plainly: PKA inhibition assay (ADP-Glo). It counts as biochemical. The following applies: Table 2, μM ± SD. Here is the method: The PKA inhibition assays were performed with the ADP-Glo system (Promega Corporation) according to the manufactory's instruction. […] After the initial reaction, ADP-Glo reagent was added to the reaction and allowed to incubate for an additional 40 min. Lastly, the kinase detection reagent was added and allowed to incubate for 30 min, and the luminescence was measured with a FlexStation 3 Multi-mode Microplate Reader (Molecular Devices). All data was analyzed in the same way as GRK inhibition assay. Experiments were performed three times in duplicate.
Standard control compounds are run during each assay to assess consistency across time, experimenters, and subtle changes in assay conditions that are sometimes required to keep some of the compounds soluble and disperse (such as through addition of DDM or 3% DMSO). Paroxetine were used as controls for GRK2 and PKA, and CCG215022 for GRK5.

The target in experiment [8] is GRK5 (Cys474) (Homo sapiens, UniProt P34947). Put plainly: Intact protein MS, covalent labelling of GRK5. Format: binding.
The mark [9] stands for this setting: read-out: GRK2 IC50, Table 1, μM ± SD.
Where [10] appears, read: read-out: GRK2 IC50, Table 2, μM ± SD.

Like-named read-outs stand apart in the source and are kept apart here.

Chain of GRK5 (P34947 whole entry): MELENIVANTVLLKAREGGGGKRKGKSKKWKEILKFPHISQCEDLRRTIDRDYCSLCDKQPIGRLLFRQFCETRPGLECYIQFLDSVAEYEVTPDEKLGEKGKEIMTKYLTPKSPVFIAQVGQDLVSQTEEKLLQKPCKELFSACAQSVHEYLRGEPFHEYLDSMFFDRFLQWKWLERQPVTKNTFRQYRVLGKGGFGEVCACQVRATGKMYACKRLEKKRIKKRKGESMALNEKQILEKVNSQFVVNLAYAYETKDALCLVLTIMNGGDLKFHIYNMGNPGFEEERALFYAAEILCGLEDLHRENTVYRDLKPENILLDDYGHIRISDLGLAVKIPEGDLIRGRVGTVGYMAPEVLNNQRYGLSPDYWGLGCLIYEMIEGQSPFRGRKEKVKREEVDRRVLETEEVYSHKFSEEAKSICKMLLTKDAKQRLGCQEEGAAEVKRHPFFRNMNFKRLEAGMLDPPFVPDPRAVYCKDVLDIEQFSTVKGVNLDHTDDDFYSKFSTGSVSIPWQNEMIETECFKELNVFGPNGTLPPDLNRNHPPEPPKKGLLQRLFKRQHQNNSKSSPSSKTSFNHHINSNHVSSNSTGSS
Chain of GRK5 (Cys474) (P34947 whole entry): as above
Chain of EGFR (P00533 25-1210, species assumed): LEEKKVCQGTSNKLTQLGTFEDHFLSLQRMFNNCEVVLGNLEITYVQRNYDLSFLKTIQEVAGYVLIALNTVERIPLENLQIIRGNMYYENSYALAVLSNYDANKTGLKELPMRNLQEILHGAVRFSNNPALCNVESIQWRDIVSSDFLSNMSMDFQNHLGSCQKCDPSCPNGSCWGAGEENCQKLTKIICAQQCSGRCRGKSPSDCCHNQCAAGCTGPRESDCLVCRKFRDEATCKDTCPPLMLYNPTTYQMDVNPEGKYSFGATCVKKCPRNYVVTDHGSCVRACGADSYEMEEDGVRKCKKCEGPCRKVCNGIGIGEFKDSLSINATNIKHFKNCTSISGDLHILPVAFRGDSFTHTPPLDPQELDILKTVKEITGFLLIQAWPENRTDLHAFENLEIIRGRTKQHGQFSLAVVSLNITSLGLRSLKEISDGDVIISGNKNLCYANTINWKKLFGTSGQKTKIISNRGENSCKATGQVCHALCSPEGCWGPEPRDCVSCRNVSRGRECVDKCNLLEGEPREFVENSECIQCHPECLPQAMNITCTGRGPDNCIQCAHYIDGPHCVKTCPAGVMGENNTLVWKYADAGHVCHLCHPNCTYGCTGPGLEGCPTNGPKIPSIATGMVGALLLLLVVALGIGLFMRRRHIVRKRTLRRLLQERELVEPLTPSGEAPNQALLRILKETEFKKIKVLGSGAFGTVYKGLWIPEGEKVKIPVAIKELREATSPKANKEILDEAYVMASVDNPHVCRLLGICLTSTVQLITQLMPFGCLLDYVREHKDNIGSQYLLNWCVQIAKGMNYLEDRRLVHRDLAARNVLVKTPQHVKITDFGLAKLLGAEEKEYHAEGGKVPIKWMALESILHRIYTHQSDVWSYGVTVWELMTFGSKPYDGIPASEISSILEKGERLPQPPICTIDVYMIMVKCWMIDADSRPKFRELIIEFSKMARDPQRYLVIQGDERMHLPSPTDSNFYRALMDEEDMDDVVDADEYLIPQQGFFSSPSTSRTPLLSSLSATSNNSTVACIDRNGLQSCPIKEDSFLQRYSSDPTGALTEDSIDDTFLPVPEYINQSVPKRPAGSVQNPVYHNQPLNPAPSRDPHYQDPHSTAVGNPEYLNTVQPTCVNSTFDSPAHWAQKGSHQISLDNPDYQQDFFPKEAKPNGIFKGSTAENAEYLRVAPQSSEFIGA
Chain of GRK6 (P43250 whole entry, species assumed): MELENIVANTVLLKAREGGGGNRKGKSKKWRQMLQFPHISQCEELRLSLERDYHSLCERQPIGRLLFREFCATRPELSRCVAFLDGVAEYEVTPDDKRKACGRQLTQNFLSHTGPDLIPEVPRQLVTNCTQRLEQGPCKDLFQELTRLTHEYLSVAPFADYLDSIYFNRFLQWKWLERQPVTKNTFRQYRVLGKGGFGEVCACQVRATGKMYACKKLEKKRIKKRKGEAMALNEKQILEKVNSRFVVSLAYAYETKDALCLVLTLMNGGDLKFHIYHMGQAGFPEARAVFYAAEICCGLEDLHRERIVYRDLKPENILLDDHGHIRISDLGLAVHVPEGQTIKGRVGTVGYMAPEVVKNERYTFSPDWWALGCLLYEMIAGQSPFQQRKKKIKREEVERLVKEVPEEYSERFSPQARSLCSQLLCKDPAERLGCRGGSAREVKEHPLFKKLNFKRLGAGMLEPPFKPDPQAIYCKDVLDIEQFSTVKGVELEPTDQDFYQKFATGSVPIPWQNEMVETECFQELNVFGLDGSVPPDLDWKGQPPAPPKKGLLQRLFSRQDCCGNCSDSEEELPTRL

On to `C#CCNC(=O)c1c(C)[nH]c(/C=C2\C(=O)Nc3ccc(C(=O)N[C@H](C)c4ccccc4)cc32)c1C` [Compound 5c, (R,Z)-3-((3,5-dimethyl-4-(prop-2-yn-1-ylcarbamoyl)-1H-pyrrol-2-yl)methylene)-2-oxo-N-(1-phenylethyl)indoline-5-carboxamide], for which the “inhibition of FGFR1/2” value in experiment [1] is 92-98%. Also, the inhibition at 1 µM was 94% in experiment [2] and 17% in experiment [4]. Besides, in experiment [3] (setting [9]), the IC50 was determined as 44 ± 40 µM. The “inhibition of PDGFR” value in experiment [5] was 99-100%.
On to `Cc1[nH]c(/C=C2\C(=O)Nc3ccc(C(=O)NC(C)(C)c4ccccc4)cc32)c(C)c1NC(=O)CCl` [Compound 9s, (Z)-3-((4-(2-chloroacetamido)-3,5-dimethyl-1H-pyrrol-2-yl)methylene)-2-oxo-N-(2-phenylpropan-2-yl)indoline-5-carboxamide], for which, in experiment [6] (Table 2, ratio of IC50 values), the GRK2/GRK5 was 260. In addition, the IC50 in experiment [7] is > 250 µM. The “covalent labelling of GRK5” value in experiment [8] (intact MS, overnight / 8 hours) is “completes labelling of GRK5”.
In the case of `Cc1[nH]c(/C=C2\C(=O)Nc3ccc(C(=O)N[C@@H](c4ccccc4)C(C)C)cc32)c(C)c1NC(=O)CCl` [Compound 9r, (R,Z)-3-((4-(2-chloroacetamido)-3,5-dimethyl-1H-pyrrol-2-yl)methylene)-N-(2-methyl-1-phenylpropyl)-2-oxoindoline-5-carboxamide], the GRK2/GRK5 in experiment [6] (Table 2, ratio of IC50 values) was determined as 15. Further, the “covalent labelling of GRK5” value in experiment [8] (intact MS, overnight / 8 hours) is on record as “partial labelling”. This compound gave a 50% inhibitory concentration (IC50) in experiment [3] of 190 ± 70 µM.
`CC#CC(=O)Nc1c(C)[nH]c(/C=C2\C(=O)Nc3ccc(C(=O)N[C@H](C)c4ccccc4)cc32)c1C` [Compound 9a, (R,Z)-3-((4-(but-2-ynamido)-3,5-dimethyl-1H-pyrrol-2-yl)methylene)-2-oxo-N-(1-phenylethyl)indoline-5-carboxamide]: the “potency / affinity against GRK5 in words” value in experiment [6] is “low μM potency”. For the same compound, the GRK2/GRK5 in experiment [6] (Table 1, ratio of IC50 values) was 61. In addition, the IC50 in experiment [6] (read-out: GRK5 IC50, Table 1, μM ± SD) was 2.5 ± 0.8 µM; in experiment [3] (setting [9]), 150 ± 30 µM. Besides, the “covalent labelling of GRK5” value in experiment [8] (intact protein MS, incubation time not stated) was “did not show any covalent engagement”.
With `Cc1[nH]c(/C=C2\C(=O)Nc3ccc(C(=O)NCc4ccccc4)cc32)c(C)c1NC(=O)CCl` [Compound 9q, (Z)—N-benzyl-3-((4-(2-chloroacetamido)-3,5-dimethyl-1H-pyrrol-2-yl)methylene)-2-oxoindoline-5-carboxamide], the IC50 in experiment [7] is > 250 µM; in experiment [3] (setting [10]), 13 ± 3 µM. Also, the “covalent labelling of GRK5” value in experiment [8] (intact MS, overnight / 8 hours) is given as “partial labelling”.
Turning to `Cc1cccc([C@@H](C)NC(=O)c2ccc3c(c2)/C(=C/c2[nH]c(C)c(NC(=O)CCl)c2C)C(=O)N3)c1` [Compound 9i, (R,Z)-3-((4-(2-chloroacetamido)-3,5-dimethyl-1H-pyrrol-2-yl)methylene)-2-oxo-N-(1-(m-tolyl)ethyl)indoline-5-carboxamide], in experiment [6] (Table 2, ratio of IC50 values), the GRK2/GRK5 is 360. In addition, the figures for the IC50 in experiment [7] and in experiment [3] (setting [10]) were > 250 µM and 11 ± 6 µM, respectively.
